These results are taken from patent publication US3988473A (priority 1975, dated 1976).

For data set [1], the system named is Guinea Pig Intradermal Wheals. The note with it: in vivo.
For data set [2] the following is noted: in vivo.
For a further data set, the system named is rat sciatic nerve. The conditions noted are these: in vivo.
The next data set has as its system Cat. The conditions noted are these: in vivo.
The test system of another data set is Female Mice. The note with it: mouse, in vivo.
The test system of the next data set is tissue. The note with it: in vivo.
Data set [3] can be described thus: in vivo. The note with it: mouse.
The subject of data set [4] is isolated frog sciatic nerve. The arrangement: species or system Rana pipiens. The note with it: for Greatest Depth of Block (% of action potential): frog, sciatic nerve.
Data set [5] in a line: in vivo. The note with it: mouse, ip.
For another data set, the system named is Sheep. The note with it: in vivo.
In a further data set the test system is Dog. The note with it: in vivo.
For data set [6], the system named is brain and the spinal cord. The note with it: in vivo.
A further data set relates to guinea pigs. The conditions noted are these: guinea pig, in vivo, sc, 646 mg/kg.
A short description of data set [7]: in vivo. The note with it: rat, sc.

The structures appear in SMILES notation. Several values for one entry are separate records, joined by “and”; a condition that tells them apart may be missing. Equal entries are not always repeated. Where two headings read alike, the source gives them in different places.

What is called LD50 is the dose at which mortality reaches 50%. Higher therefore signals lower toxicity. As for `Cc1cccc(C)c1NC(=O)CNC(C)(C)C` [A, 2-(tert.-butylamino)-2',6'-acetoxylidide], the “Duration of guinea pig intradermal wheals” value in data set [1] is 129 ± 14 min and 148 ± 20 min and 186 ± 17 min and 197 ± 14 min. For the same molecule, the “Local anaesthetic effect (in words)” value in [2] is listed as “unusually long-lasting local anaesthetic effect”. In the data set on rat sciatic nerve, the Duration was 126 ± 12 and 157 ± 18; the Frequency is recorded as 5/5; the Onset is 5 min. Also, the “Duration of Block of Support of Weight” value with Cat is 54 ± 9 min and 104 ± 29 min. Also, in the data set with Female Mice (iv), the “Intravenous toxicity (in words)” value is “unusually low intravenous toxicity”. For the same molecule, in the data set on tissue, the “Tissue irritation (in words)” value is “quite satisfactory”. In the data set “in vivo [3]” (ip), the 50% lethal dose (LD50) is 119 mg/kg. In the data set “in vivo [3]” (iv), this molecule yielded a median lethal dose (LD50) of 35.4 mg/kg. The same molecule showed an LD50 in “in vivo [3]” (sc) of 141 mg/kg.
As for `CCN(CC(=O)Nc1c(C)cccc1C)C(C)(C)CC` [C, 2-(N-ethyl-tert.-amylamino)-2',6'-acetoxylidide], in data set [1], the “Duration of guinea pig intradermal wheals” value was 158 ± 49 min and 230 ± 32 min and 301 ± 11 min. Also, in [4], the “Average time for 80% recovery of action potential” value (“Average time for 80% recovery” below) amounted to 29 min. In addition, in [4] (20000 µM), the “Greatest Depth of Block (% of action potential)” value stood at 77%. Besides, in data set [2], the “Duration of anaesthesia (in words)” value is “significantly longer duration than compounds A and B”; the “Local anaesthetic effect (in words)” value is “unusual, long-lasting local anaesthetic effect and high local anaesthetic activity”. The “Duration of rat sciatic nerve block (days)” value with rat sciatic nerve fell in the range of 1 to 8 days. In the data set on Cat, the “Duration of Block of Support of Weight” value is 220 ± 64 min and 298 ± 56 min; the “Duration of Block of Support of Weight, 1 animal outside the mean” value was more than 7 h. The “Acute toxicity (in words)” value in the data set on Female Mice is reported as “satisfactory low acute toxicity”. Also, in the data set with tissue, the “Irritation compared with bupivacaine” value is “not more irritating than bupivacaine at 0.5% concentration” and the “Tissue irritation (in words)” value is on record as “satisfactory low level of tissue irritation”. This molecule also had an LD50 in the data set “in vivo [3]” (ip) of 81 mg/kg. For the same molecule, in “in vivo [3]” (iv), the LD50 came to 7.4 mg/kg.
In the case of `Cc1cccc(C)c1NC(=O)C(C)NC(C)(C)C` (centres unmarked) [Compound B, 2-(tert.-butylamino)-2',6'-propionoxylidide], in [1], the “Guinea Pig Wheal Duration” value is 139 ± 24 and 160 ± 43 and 184 ± 36; the “Guinea Pig Wheal Frequency” value is given as 12/12. Further, in the data set on rat sciatic nerve, the “Adverse signs in rat sciatic test” value is given as “Depression, ataxia, loss of righting reflex in some animals”; the Duration is 128 ± 13 and 133 ± 7; the Frequency was 5/5; the Onset is 3 min and 2 min. The “Rat Sciatic Frequency” value in the data set on rat sciatic nerve is 8/10 and 10/10. Moreover, the median lethal dose (LD50) in the data set “in vivo [5]” turned out to be 61 mg/kg.
Consider `CCCN(CC(=O)Nc1c(C)cccc1C)C(C)(C)CC` [Compound D, 2-(N-n-propyl-tert.-amylamino)-2',6'-acetoxylidide], for which the “Duration of guinea pig intradermal wheals” value in [1] was 171 ± 26 min and 227 ± 21 min and 253 ± 16 min and 303 ± 19 min. In data set [4], the “Average time for 80% recovery” value amounted to 163 min. The “Greatest Depth of Block (% of action potential)” value in [4] (5000 µM) was 96%. Besides, in the data set on Sheep, the “Duration of block of Digital Pain” value lay within 45 to 60 min and the Onset time fell in the range of 5 to 10 min. Besides, in [2], the “Duration of anaesthesia (in words)” value was “significantly longer duration than compounds A and B”; the “Local anaesthetic effect (in words)” value is “unusual, long-lasting local anaesthetic effect and high local anaesthetic activity”. Moreover, in the data set with rat sciatic nerve, the “Duration of block, 2 animals outside the mean” value was in the range of 10 to 13 days; the “Duration of rat sciatic nerve block” value is 217 ± 25 min and 124 ± 50 min and 157 ± 30 min; the “Duration of rat sciatic nerve block (days)” value was 8 to 27 days and 13 to 30 days. For the same molecule, the “Acute toxicity (in words)” value in the data set on Female Mice is on record as “satisfactory low acute toxicity”. Further, in the data set on Dog, the “Duration of block of Digital Pain” value was 1 to 2 days; the “Duration, Digital Pain” value was 289 min and 338 min; the “Duration, Scrotal Pain” value was 218 min and 226 min; the “Recovery of the animals” value is recorded as “All animals recovered completely”. For the same molecule, the “Pathological change in brain and spinal cord” value in data set [6] is listed as “no pathological change attributable to the drugs was found”. For the same molecule, in the data set with tissue, the “Irritation compared with bupivacaine” value is listed as “not more irritating than bupivacaine at 0.5% concentration” and the “Tissue irritation (in words)” value is given as “satisfactory low level of tissue irritation”. This molecule had an LD50 in the data set “in vivo [3]” (ip) of 39 mg/kg. For the same molecule, in “in vivo [3]” (iv), the LD50 came out at 6.8 mg/kg. The LD50 in “in vivo [3]” (sc) was 109 mg/kg.
`CCCCN(CC(=O)Nc1c(C)cccc1C)C(C)(C)C` [Compound E, 2-(N-n-butyl-tert.-butylamino)-2',6'-acetoxylide]: in the data set on rat sciatic nerve, the “Duration of rat sciatic nerve block, Mean ± S.D.” value was 174 ± 26 min and 200 ± 18 min and 237 min; the “Frequencies and durations (in words)” value is “Frequencies and durations were good”; the “Frequency of rat sciatic nerve block” value is 9/10 and 10/10. Also, in the data set with Dog, the “Duration of block of Digital Pain” value lay within 1 to 2 days and the “Recovery of the animals” value is “All animals recovered completely”. Further, in the data set on guinea pigs, the Survival result is “all animals survived”. In addition, the “Pathological change in brain and spinal cord” value in data set [6] was “no pathological change attributable to the drugs was found”. The molecule further registered an LD50 in “in vivo [5]” of 284 mg/kg. Besides, the LD50 in “in vivo [7]” was 1070 mg/kg.
`CCC(C)(C)NCC(=O)Nc1c(C)cccc1C` [Compound F, 2-(N-tert.-amylamino)-2',6'-acetoxylidide]: in the data set on rat sciatic nerve, the Duration is 97 ± 4 and 101 ± 8; the Frequency is 6/6; the Onset is 3 min and 2 min.
In the case of `CCCCN1CCCCC1C(=O)Nc1c(C)cccc1C` (centres unmarked) [X, N-n-butylpipecolyl-2,6-xylidide, reference compound], the “Duration of guinea pig intradermal wheals” value in data set [1] is 182 ± 4 min and 252 ± 5 min and 314 ± 10 min. Besides, the “Average time for 80% recovery” value in data set [4] is reported as 65 min. In addition, in data set [4] (5000 µM), the “Greatest Depth of Block (% of action potential)” value was found to be 64%. Also, in the data set on Cat, the Toxic effects entry was “Toxic effects observed”. Besides, the median lethal dose (LD50) in “in vivo [3]” (ip) worked out at 40 mg/kg; in the data set “in vivo [3]” (iv), 6.4 mg/kg; in “in vivo [3]” (sc) it was 45 mg/kg.
Take `CCN(CC)CC(=O)Nc1c(C)cccc1C` [Y, diethylaminoaceto-2,6-xylide, reference compound]: the “Duration of guinea pig intradermal wheals” value in data set [1] is 78 ± 9 min and 110 ± 13 min and 117 ± 6 min and 121 ± 12 min. The “Duration of Block of Support of Weight” value in the data set on Cat turned out to be 88 ± 10 min.
